In US20250134889A1, “TARGETING IRE1 KINASE AND FMRP FOR PROPHYLAXIS, MANAGEMENT AND TREATMENT OF ATHEROSCLEROSIS” (CEDARS-SINAI MEDICAL CENTER, priority 2022, published 2025):

Experiments:
[1] = test system: mouse and human macrophages; settings: cited from earlier work
atherosclerotic plaque = settings: mice; cited from earlier work
[2] = test system: RAW 264.7 mouse macrophages; test: ER stressor treatment of RAW 264.7 macrophages (western blot, qRT-PCR); type: cell-based; settings: oxLDL 50 μg/ml or TG 300 nM, 6 hours
Experimental: FIGS. 1A-1K depict FMRP is a new inositol-requiring enzyme-1 (IRE1) kinase substrate. A representative blot is shown from at least n=3 independent experiments. Data are mean±SEM. Unpaired 1-test with Welch's correction or paired 1-test. * P≤0.05, ** P≤0.01, *** P≤0.001. • 1A. STING analysis of published IRE1 interactome proteins in relation to FMRP (Acosta-Alvear et al., 2018). • 1B. HEK293T cells were co-transfected with IRE1 and FMRP plasmids and stimulated with TG (600 nM) or TM (1 mg/ml) for 2 hours. Protein lysates were immunoprecipitated (IP) with anti-IRE1 or IgG (control) antibodies and analyzed by Western blotting using specific antibodies for FMRP and IRE1 (n=3). • 1C. RAW 264.7 mouse macrophages were treated with either oxLDL (50 μg/ml) or TG (300 nM) for 6 hours. Protein lysates were treated with λ Phosphatase (PPase) for 30 minutes and analyzed by western blotting using specific antibodies for pFMRP, FMRP, pIRE1, IRE1 and β-Actin. pFMRP/FMRP fold induction is depicted above the blots (n=6). • 1D. Apoe^−/− mice were fed with chow diet (CD) or western diet (WD) for 16 weeks followed by peritoneal macrophage (PM) isolation. Protein lysates were analyzed by western blotting using specific antibodies for pFMRP, FMRP, pIRE1, IRE1 and β-Actin. pFMRP/FMRP-fold induction is depicted above the blots (n=5). • 1E. Control- or IRE1-siRNA transfected HEK293T cells were stimulated by either PA (500 μM) or TG (600 nM) for 4 hours. Protein lysates were analyzed by western blotting using specific antibodies for pFMRP, FMRP, pIRE1, IRE1 and β-Actin. pFMRP/FMRP fold induction is depicted above the blots (n=4). • 1F. Protein lysates of thioglycolate-elicited PM from IRE1α^−/− and IRE1α^−/− mice (after 16 weeks on WD) were analyzed by western blotting using specific antibodies for pFMRP, FMRP, pIRE1, IRE1 and β-Actin. pFMRP/FMRP fold induction is depicted above the blots (n=4). • 1G. […] Protein lysates were analyzed by western blotting using specific antibodies for pFMRP, FMRP, pIRE1, IRE1 and β-Actin. pFMRP/FMRP fold induction is depicted above the blots (n=4). • 1H. […] Protein lysates of thioglycolate-elicited PM were analyzed by western blotting using antibodies for pFMRP, FMRP, pIRE1, IRE1 and β-Actin. pFMRP/FMRP fold induction is depicted above the blots (n=4). • 1I. […] The IP protein were analyzed by western blotting using specific antibodies for thiophosphate esters (ThioP), IRE1 and FMRP (n=3). • 1J. Purified FMRP and IRE1 kinase (activated) proteins were subjected to kinase assay and analyzed by western blotting using specific antibodies for ThioP, IRE1 and FMRP (n=3) and with LC-MS/MS. […] Protein lysates were analyzed by western blotting using specific antibodies for FMRP, pFMRP, pIRE1 and β-Actin. pFMRP/FMRP fold induction is depicted above the blots (n=3). […]

HEK293T cells = test: ER stress-induced phosphorylation in control- or IRE1-siRNA transfected HEK293T cells (western blot); type: cell-based, human; settings: PA 500 μM or TG 600 nM, 4 hours, control cells
Experimental: FIGS. 1A-1K depict FMRP is a new inositol-requiring enzyme-1 (IRE1) kinase substrate. A representative blot is shown from at least n=3 independent experiments. Data are mean±SEM. Unpaired 1-test with Welch's correction or paired 1-test. * P≤0.05, ** P≤0.01, *** P≤0.001. • 1A. STING analysis of published IRE1 interactome proteins in relation to FMRP (Acosta-Alvear et al., 2018). • 1B. HEK293T cells were co-transfected with IRE1 and FMRP plasmids and stimulated with TG (600 nM) or TM (1 mg/ml) for 2 hours. Protein lysates were immunoprecipitated (IP) with anti-IRE1 or IgG (control) antibodies and analyzed by Western blotting using specific antibodies for FMRP and IRE1 (n=3). • 1C. RAW 264.7 mouse macrophages were treated with either oxLDL (50 μg/ml) or TG (300 nM) for 6 hours. Protein lysates were treated with λ Phosphatase (PPase) for 30 minutes and analyzed by western blotting using specific antibodies for pFMRP, FMRP, pIRE1, IRE1 and β-Actin. pFMRP/FMRP fold induction is depicted above the blots (n=6). • 1D. […] Protein lysates were analyzed by western blotting using specific antibodies for pFMRP, FMRP, pIRE1, IRE1 and β-Actin. pFMRP/FMRP-fold induction is depicted above the blots (n=5). • 1E. […] Protein lysates were analyzed by western blotting using specific antibodies for pFMRP, FMRP, pIRE1, IRE1 and β-Actin. pFMRP/FMRP fold induction is depicted above the blots (n=4). • 1F. […]

Row | SMILES | lipid-induced inflammasome activation [1] | secretion of mature interleukin-1β (m-IL-1β) and m-IL-18 [1] | atherosclerotic plaque size (atherosclerotic plaque) | hyperlipidemia-induced m-IL-1β and m-IL-18 production (atherosclerotic plaque) | FMRP phosphorylation (S500) [2] | IRE1 autophosphorylation (S724) [2] | levels of FMRP protein [2] | levels of Fmr1 mRNA [2] | phosphorylation of FMRP (HEK293T cells) | phosphorylation of IRE1 (HEK293T cells)
1 | Cc1cc(=O)oc2c(C=O)c(O)ccc12 [4μ8C] | prevented | prevented | reducing | reducing |  |  |  |  |  | 
2 | O=S(=O)(N=Cc1c(O)ccc2ccccc12)c1cccs1 [STF-083010] | prevented | prevented | reducing | reducing |  |  |  |  |  | 
3 | C/C=C(/C)C(=O)O[C@H]1C(C)=C2[C@H]([C@@H]1OC(=O)CCCCCCC)[C@@](C)(OC(C)=O)C[C@H](OC(=O)CCC)[C@@]1(O)[C@H]2OC(=O)[C@@]1(C)O [TG, thapsigargin] |  |  |  |  | significantly induced | significantly induced | did not affect | did not affect | induced | induced
